Source: patent EP4813991A1 (iLeadBMS Co., Ltd., priority 2023, dated 2025)
Like-named read-outs stand apart in the source and are kept apart here.

How the values were obtained:
CDK12 [1] = target: T1, CDK12 (Homo sapiens, UniProt Q9NYV4); assay: CDK12 kinase inhibitory activity assay (33P-ATP filter binding); format: biochemical
Protocol: (§1) Before initiating the CDK12 and CDK13 kinase reactions, each Example compound was dissolved and diluted in DMSO as a solvent across 9 concentration ranges at room temperature. The diluted solutions were then incubated with a mixture of kinase and substrate (and cofactors, if required) for 20 minutes. Next, radioisotope-labeled ATP (^33P-gamma-ATP) was added to proceed with the kinase reaction at room temperature for 120 minutes. After the reaction was completed, the reaction mixture was transferred to a filter paper that binds the radioisotope-labeled catalytic product (^33P-substrate). Unreacted ^33P-ATP was removed by washing with 0.75 % phosphoric acid, and then the radioactive phosphorylated substrate remaining on the filter paper was measured. Kinase activity data were expressed as a percentage of the kinase activity remaining in the test sample compared to a DMSO control group. The half-maximal inhibitory concentration (IC50) for each kinase was calculated using Prism (Graphpad) software.

CDK13 = CDK13 (Homo sapiens, UniProt Q14004); assay: CDK13 kinase inhibitory activity assay (33P-ATP filter binding); format: biochemical
Chain of CDK13 (Q14004 whole entry, species assumed): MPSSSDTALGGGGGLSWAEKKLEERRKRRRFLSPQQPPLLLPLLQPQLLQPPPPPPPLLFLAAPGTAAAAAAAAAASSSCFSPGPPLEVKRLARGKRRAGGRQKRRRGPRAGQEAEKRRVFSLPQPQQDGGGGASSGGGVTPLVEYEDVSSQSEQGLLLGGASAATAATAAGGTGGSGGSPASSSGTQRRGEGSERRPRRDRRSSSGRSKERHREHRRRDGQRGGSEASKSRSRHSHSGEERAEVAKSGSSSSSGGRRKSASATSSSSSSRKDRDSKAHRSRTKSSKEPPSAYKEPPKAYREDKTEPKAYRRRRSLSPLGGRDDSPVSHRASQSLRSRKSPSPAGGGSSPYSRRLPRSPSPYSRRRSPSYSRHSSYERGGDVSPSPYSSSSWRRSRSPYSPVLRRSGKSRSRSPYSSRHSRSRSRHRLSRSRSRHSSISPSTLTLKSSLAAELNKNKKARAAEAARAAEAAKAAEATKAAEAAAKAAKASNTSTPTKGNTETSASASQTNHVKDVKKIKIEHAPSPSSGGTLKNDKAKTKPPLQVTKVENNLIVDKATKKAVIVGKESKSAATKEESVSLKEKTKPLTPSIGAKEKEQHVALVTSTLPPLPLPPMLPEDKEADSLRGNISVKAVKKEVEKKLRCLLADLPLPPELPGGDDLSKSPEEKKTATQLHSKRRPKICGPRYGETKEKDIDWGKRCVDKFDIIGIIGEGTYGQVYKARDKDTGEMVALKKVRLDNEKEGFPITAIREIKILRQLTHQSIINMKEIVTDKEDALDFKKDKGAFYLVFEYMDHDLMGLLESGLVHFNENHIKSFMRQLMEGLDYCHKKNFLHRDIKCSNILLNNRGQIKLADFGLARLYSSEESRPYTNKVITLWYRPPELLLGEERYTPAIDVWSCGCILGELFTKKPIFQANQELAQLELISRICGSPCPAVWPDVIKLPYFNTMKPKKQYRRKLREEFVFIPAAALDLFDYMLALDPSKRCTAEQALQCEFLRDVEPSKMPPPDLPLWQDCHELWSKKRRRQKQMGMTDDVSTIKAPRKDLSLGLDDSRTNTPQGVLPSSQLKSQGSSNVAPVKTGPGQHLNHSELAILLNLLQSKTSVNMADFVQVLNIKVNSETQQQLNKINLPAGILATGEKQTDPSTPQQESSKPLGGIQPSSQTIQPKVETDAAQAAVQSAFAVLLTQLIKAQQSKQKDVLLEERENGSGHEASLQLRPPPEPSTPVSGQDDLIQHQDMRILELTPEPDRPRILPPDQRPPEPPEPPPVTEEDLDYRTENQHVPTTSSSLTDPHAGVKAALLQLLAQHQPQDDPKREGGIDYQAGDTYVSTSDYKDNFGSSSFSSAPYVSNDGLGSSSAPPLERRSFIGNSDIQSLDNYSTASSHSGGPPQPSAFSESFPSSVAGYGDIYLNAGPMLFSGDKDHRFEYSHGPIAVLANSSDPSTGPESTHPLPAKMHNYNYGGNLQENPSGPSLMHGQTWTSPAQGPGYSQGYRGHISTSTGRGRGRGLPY
Chain of CDK13 (O75909 whole entry partner, species assumed): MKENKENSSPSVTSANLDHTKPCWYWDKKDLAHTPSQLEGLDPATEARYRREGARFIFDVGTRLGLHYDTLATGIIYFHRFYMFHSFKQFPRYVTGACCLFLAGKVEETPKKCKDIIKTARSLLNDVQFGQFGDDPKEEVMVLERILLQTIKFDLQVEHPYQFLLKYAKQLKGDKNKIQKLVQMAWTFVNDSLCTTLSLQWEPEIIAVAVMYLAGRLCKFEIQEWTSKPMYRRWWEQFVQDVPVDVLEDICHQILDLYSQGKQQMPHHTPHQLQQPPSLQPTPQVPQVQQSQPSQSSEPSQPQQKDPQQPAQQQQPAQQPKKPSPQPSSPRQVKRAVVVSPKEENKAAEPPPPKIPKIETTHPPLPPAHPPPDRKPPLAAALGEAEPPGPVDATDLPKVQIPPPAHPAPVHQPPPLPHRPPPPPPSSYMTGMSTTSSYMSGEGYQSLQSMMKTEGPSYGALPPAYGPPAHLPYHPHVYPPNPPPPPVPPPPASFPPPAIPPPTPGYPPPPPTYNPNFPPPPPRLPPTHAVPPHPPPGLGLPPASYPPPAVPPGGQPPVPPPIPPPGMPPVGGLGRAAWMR
Protocol: as §1

CDK12 [2] = target: T1, CDK12; assay: Cellular CDK12 inhibitory activity assay (Ser2 phosphorylation of RNA polymerase II subunit B1 CTD in MDA-MB-231 cells); format: cell-based; parameters: using MDA-MB-231 breast cancer cells; endogenous in cells; host or cells: MDA-MB-231; settings: MDA-MB-231 cells, 6 hours treatment; read-out: pRpbl CTD S2 IC50
Protocol: MDA-MB-231 cells were dispensed into a 96-well plate at 100 µL of cell suspension per well using L-15 (Invitrogen) medium containing 10 % FBS, followed by overnight incubation in a cell incubator at 37 °C and 0 % CO2. The next day, each Example compound dissolved in DMSO across 9 concentration ranges and a DMSO control group were treated on the MDA-MB-231 cells at 37 °C and 0 % CO2 for 6 hours. After the compound treatment, the medium in the 96-well plate was removed, and 60 µL of a fixing solution (4.0 % paraformaldehyde in PBS) was added to each well, followed by standing for 20 minutes. After removing the fixing solution and washing with PBS, 60 µL of PBS containing 0.1 % Triton X-100 was dispensed into each well, followed by shaking at room temperature for 15 minutes. After washing with PBS, 100 µL of blocking buffer was added, followed by shaking at room temperature for 1 hour. After removing the blocking buffer, primary antibodies, which are RNA polymerase II subunit B1 phospho-Ser2 (1:500, Cell signaling technology) and RNA polymerase II subunit B1 carboxy-terminal domain (1:200, Cell signaling technology), were added at 60 µL per well and reacted overnight at 4 °C. After adding 150 µL of PBS containing 0.1 % Triton X-100 and washing at least twice by shaking at room temperature for 5 minutes, 60 µL of a secondary antibody was added, followed by shaking at room temperature for 1 hour while blocking light. After adding 150 µL of PBS containing 0.1 % Triton X-100 and washing at least twice by shaking at room temperature for 5 minutes, 150 µL of PBS was added again, followed by washing at least twice by shaking at room temperature for 5 minutes. The plate was scanned using a Li-COR Odyssey machine with the wells filled with PBS. IC50 values were calculated by fitting a dose-response curve using a 4-parameter model of Prism (Graphpad) software.

[3] = test system: MDA-MB-231 breast cancer cells; assay: Proliferation inhibitory activity assay against MDA-MB-231 breast cancer cells; format: cell-based; settings: Homo sapiens, 72 hours, CellTiter Glo, relative IC50
Protocol: Experiments were performed using the MDA-MB-231 breast cancer cell line to measure the cell proliferation inhibitory ability of each Example compound. MDA-MB-231 cells were dispensed into a 96-well plate at 100 µL of cell suspension per well using L-15 (Invitrogen) medium containing 10 % FBS, followed by incubation in a cell incubator at 37 °C and 0 % CO2. The next day, each Example compound dissolved and diluted in DMSO across 9 concentration ranges and a DMSO control group were treated on the cells for 72 hours. After the compound treatment was completed, 100 µL of CellTiter Glo (Promega) reagent was added to each well of the 96-well plate, followed by shaking for 10 minutes and standing at room temperature for 10 minutes. Luminescence signals were measured after inserting the 96-well plate into an Envision plate reader (PerkinElmer). Relative IC50 values were calculated by fitting a dose-response curve using XLfit (IDBS Ltd) software.
The breast cancer cell proliferation inhibitory activities of the Example compounds measured by the above method were evaluated according to the following criteria, and the results are presented in Table 13.

[4] = kinase reaction 120 minutes, 33P-gamma-ATP, read-out: CDK12 IC50
[5] = kinase reaction 120 minutes, 33P-gamma-ATP, read-out: CDK13 IC50

T1 sequence (Q9NYV4 whole entry, species assumed): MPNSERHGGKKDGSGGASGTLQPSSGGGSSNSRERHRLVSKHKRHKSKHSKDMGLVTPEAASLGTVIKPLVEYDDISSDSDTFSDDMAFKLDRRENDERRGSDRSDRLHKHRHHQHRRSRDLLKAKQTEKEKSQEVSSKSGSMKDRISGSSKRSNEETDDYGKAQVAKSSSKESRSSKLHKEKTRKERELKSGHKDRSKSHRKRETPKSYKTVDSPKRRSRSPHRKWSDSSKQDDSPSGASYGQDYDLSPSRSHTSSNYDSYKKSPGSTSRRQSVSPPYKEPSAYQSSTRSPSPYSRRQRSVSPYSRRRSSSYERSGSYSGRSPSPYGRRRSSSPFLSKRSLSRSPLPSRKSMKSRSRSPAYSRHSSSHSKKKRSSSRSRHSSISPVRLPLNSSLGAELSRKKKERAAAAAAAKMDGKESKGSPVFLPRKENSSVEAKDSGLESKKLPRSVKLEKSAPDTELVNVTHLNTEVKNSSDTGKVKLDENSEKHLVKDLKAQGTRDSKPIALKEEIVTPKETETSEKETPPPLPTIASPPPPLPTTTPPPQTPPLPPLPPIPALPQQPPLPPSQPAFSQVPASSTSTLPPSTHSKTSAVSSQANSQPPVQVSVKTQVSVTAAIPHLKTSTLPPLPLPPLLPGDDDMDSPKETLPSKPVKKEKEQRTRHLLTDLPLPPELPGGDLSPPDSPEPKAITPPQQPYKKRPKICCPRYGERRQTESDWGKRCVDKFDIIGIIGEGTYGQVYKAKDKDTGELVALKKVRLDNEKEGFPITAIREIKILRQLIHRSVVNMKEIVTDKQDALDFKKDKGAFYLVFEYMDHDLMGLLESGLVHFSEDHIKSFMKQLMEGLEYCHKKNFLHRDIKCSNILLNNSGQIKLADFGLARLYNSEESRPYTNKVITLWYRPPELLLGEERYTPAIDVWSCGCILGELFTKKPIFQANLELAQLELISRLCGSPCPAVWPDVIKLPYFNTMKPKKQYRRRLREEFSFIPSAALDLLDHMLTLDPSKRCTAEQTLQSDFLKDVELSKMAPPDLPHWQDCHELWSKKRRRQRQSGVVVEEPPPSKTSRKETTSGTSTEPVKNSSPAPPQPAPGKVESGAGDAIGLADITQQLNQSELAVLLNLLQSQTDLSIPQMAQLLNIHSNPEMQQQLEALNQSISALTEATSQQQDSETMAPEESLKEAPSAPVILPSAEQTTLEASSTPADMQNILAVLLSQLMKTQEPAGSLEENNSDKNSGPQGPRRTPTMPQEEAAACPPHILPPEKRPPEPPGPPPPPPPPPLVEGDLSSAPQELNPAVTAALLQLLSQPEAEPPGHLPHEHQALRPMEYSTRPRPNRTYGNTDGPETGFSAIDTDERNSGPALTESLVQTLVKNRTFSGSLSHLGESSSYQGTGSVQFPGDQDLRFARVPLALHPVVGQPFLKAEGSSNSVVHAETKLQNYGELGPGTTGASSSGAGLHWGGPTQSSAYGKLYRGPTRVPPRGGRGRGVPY
T1 sequence (O75909 whole entry partner, species assumed): as the sequence (O75909 whole entry partner, species assumed) above

Structure (SMILES)	IC50 (CDK12 [1]; [4])	IC50 (CDK13; [5])	IC50 (CDK12 [2])	IC50 [3]	IC50 (CDK13)	IC50 (CDK12 [1])
FC(F)(F)c1cnc2c(NCc3nc4cc(Cl)c(Cl)cc4o3)cc(N3CCOCC3)nn12 [Example 91, N-((5,6-dichlorobenzo[d]oxazol-2-yl)methyl)-6-morpholino-3-(trifluoromethyl)imidazo[1,2-b]pyridazin-8-amine]	> 500 nM	> 500 nM	300 to 3000 nM	50 to 500 nM	–	–
CC1(O)CC2CCC(C1)N2c1cc(NCc2nc3cc(Cl)c(Cl)cc3[nH]2)c2ncc(C(F)(F)F)n2n1 (stereo not shown) [Example 34]	–	100 to 500 nM	< 300 nM	50 to 500 nM	–	> 500 nM
OC1(C2CN(c3cc(NCc4nc5cc(Cl)c(Cl)cc5[nH]4)c4ncc(C(F)(F)F)n4n3)C2)CC1 [Example 50, 1-(1-(8-(((5,6-dichloro-1H-benzo[d]imidazol-2-yl)methyl)amino)-3-(trifluoromethyl)imidazo[1,2-b]pyridazin-6-yl)azetidin-3-yl)cyclopropan-1-ol]	100 to 500 nM	100 to 500 nM	300 to 3000 nM	50 to 500 nM	–	–
Fc1ccc2nc(CNc3cc(N4CCOCC4)nn4c(C#CC5CC5)cnc34)[nH]c2c1F [Example 25, 3-(cyclopropylethynyl)-N-((6,7-difluoro-1H-benzo[d]imidazol-2-yl)methyl)-6-morpholinoimidazo[1,2-b]pyridazin-8-amine]	> 500 nM	> 500 nM	> 3000 nM	> 500 nM	–	–
CN1CC2CC(C1)N2c1cc(NCc2nc3cc(Cl)c(Cl)cc3[nH]2)c2ncc(C(F)(F)F)n2n1 [Example 100, N-((5,6-dichloro-1H-benzo[d]imidazol-2-yl)methyl)-6-(3-methyl-3,6-diazabicyclo[3.1.1]heptan-6-yl)-3-(trifluoromethyl)imidazo[1,2-b]pyridazin-8-amine]	< 100 nM	< 100 nM	< 300 nM	≤ 50 nM	–	–
FC(F)(F)c1cnc2c(NCc3nc4cc(Cl)c(Cl)cc4[nH]3)cc(N3CC(NC4CC4)C3)nn12 [Example 58, 6-(3-(cyclopropylamino)azetidin-1-yl)-N-((5,6-dichloro-1H-benzo[d]imidazol-2-yl)methyl)-3-(trifluoromethyl)imidazo[1,2-b]pyridazin-8-amine]	> 500 nM	100 to 500 nM	< 300 nM	≤ 50 nM	–	–
CN1C2CCC1CN(c1cc(NCc3nc4cc(Cl)c(Cl)cc4[nH]3)c3ncc(C(F)(F)F)n3n1)C2 [Example 33]	< 100 nM	< 100 nM	< 300 nM	≤ 50 nM	–	–
Fc1ccc2nc(CNc3cc(N4CC5CCC(C4)O5)nn4c(C(F)(F)F)cnc34)[nH]c2c1F [Example 9]	–	< 100 nM	< 300 nM	≤ 50 nM	–	< 100 nM
OC1CC2CCC(C1)N2c1cc(NCc2nc3cc(Cl)c(Cl)cc3[nH]2)c2ncc(C(F)(F)F)n2n1 (stereo not shown) [Example 101, 8-(8-(((5,6-dichloro-1H-benzo[d]imidazol-2-yl)methyl)amino)-3-(trifluoromethyl)imidazo[1,2-b]pyridazin-6-yl)-8-azabicyclo[3.2.1]octan-3-ol]	100 to 500 nM	< 100 nM	< 300 nM	≤ 50 nM	–	–

The next lines start with results.

IC50 (CDK12 [1]; [4])	IC50 (CDK13; [5])	IC50 (CDK12 [2])	IC50 [3]	IC50 (CDK13)	Structure (SMILES)	IC50 (CDK12 [1])
< 100 nM	< 100 nM	< 300 nM	≤ 50 nM	–	Fc1cc2nc(CNc3cc(N4CCOCC4)nn4c(C(F)(F)F)cnc34)[nH]c2cc1F [Example 70, N-((5,6-difluoro-1H-benzo[d]imidazol-2-yl)methyl)-6-morpholino-3-(trifluoromethyl)imidazo[1,2-b]pyridazin-8-amine]	–
< 100 nM	< 100 nM	< 300 nM	≤ 50 nM	–	CN1CCN(c2cc(NCc3nc4cc(F)c(F)cc4[nH]3)c3ncc(C(F)(F)F)n3n2)CC1 [Example 110, N-((5,6-difluoro-1H-benzo[d]imidazol-2-yl)methyl)-6-(4-methylpiperazin-1-yl)-3-(trifluoromethyl)imidazo[1,2-b]pyridazin-8-amine]	–
< 100 nM	< 100 nM	< 300 nM	≤ 50 nM	–	CC(=O)N1CCN(c2cc(NCc3nc4cc(Cl)c(Cl)cc4[nH]3)c3ncc(C(F)(F)F)n3n2)CC1 [Example 51, 1-(4-(8-(((5,6-dichloro-1H-benzo[d]imidazol-2-yl)methyl)amino)-3-(trifluoromethyl)imidazo[1,2-b]pyridazin-6-yl)piperazin-1-yl)ethan-1-one]	–
< 100 nM	< 100 nM	< 300 nM	≤ 50 nM	–	NC1CCN(c2cc(NCc3nc4cc(F)c(F)cc4[nH]3)c3ncc(C(F)(F)F)n3n2)CC1 [Example 111, 6-(4-aminopiperidin-1-yl)-N-((5,6-difluoro-1H-benzo[d]imidazol-2-yl)methyl)-3-(trifluoromethyl)imidazo[1,2-b]pyridazin-8-amine]	–
< 100 nM	< 100 nM	< 300 nM	≤ 50 nM	–	O=C(CO)N1CCN(c2cc(NCc3nc4cc(Cl)c(Cl)cc4[nH]3)c3ncc(C(F)(F)F)n3n2)CC1 [Example 102, 1-(4-(8-(((5,6-dichloro-1H-benzo[d]imidazol-2-yl)methyl)amino)-3-(trifluoromethyl)imidazo[1,2-b]pyridazin-6-yl)piperazin-1-yl)-2-hydroxyethan-1-one]	–
< 100 nM	< 100 nM	< 300 nM	50 to 500 nM	–	NC(=O)C1CN(c2cc(NCc3nc4cc(Cl)c(Cl)cc4[nH]3)c3ncc(C(F)(F)F)n3n2)C1 [Example 65, 1-(8-(((5,6-dichloro-1H-benzo[d]imidazol-2-yl)methyl)amino)-3-(trifluoromethyl)imidazo[1,2-b]pyridazin-6-yl)azetidine-3-carboxamide]	–
< 100 nM	< 100 nM	300 to 3000 nM	50 to 500 nM	–	FC(F)(F)c1ccc2[nH]c(CNc3cc(N4CCOCC4)nn4c(C(F)(F)F)cnc34)nc2c1 [Example 78, 6-morpholino-3-(trifluoromethyl)-N-((5-(trifluoromethyl)-1H-benzo[d]imidazol-2-yl)methyl)imidazo[1,2-b]pyridazin-8-amine]	–
< 100 nM	< 100 nM	< 300 nM	50 to 500 nM	–	NC(=O)C1CCN(c2cc(NCc3nc4cc(Cl)c(Cl)cc4[nH]3)c3ncc(C(F)(F)F)n3n2)CC1 [Example 67, 1-(8-(((5,6-dichloro-1H-benzo[d]imidazol-2-yl)methyl)amino)-3-(trifluoromethyl)imidazo[1,2-b]pyridazin-6-yl)piperidine-4-carboxamide]	–
< 100 nM	< 100 nM	< 300 nM	≤ 50 nM	–	C[C@@H]1CN(c2cc(NCc3nc4cc(Cl)c(Cl)cc4[nH]3)c3ncc(C(F)(F)F)n3n2)C[C@H](C)N1 [Example 39, N-((5,6-dichloro-1H-benzo[d]imidazol-2-yl)methyl)-6-((3S,5R)-3,5-dimethylpiperazin-1-yl)-3-(trifluoromethyl)imidazo[1,2-b]pyridazin-8-amine]	–
< 100 nM	–	300 to 3000 nM	50 to 500 nM	< 100 nM	FC(F)(F)c1cnc2c(NCc3cn4ccccc4n3)cc(N3CCOCC3)nn12 [Example 82, N-(imidazo[1,2-a]pyridin-2-ylmethyl)-6-morpholino-3-(trifluoromethyl)imidazo[1,2-b]pyridazin-8-amine]	–
